Tests used:
Primary DRG cells [1] = assay: Neurite outgrowth assay (group A), paclitaxel-induced neurotoxicity; assay type: cell-based, C57BL/6 J mice; settings: for neuroprotection against paclitaxel-induced neurotoxicity: 1 µM compound, 0.05 µM paclitaxel; for activity at 1 µM: Mus musculus, DRG cells, 1 µM compound 24 h then 0.05 µM paclitaxel 24 h, % of untreated control, read-out: Neurite outgrowth (%); for Neurite outgrowth (%) A-B (extent of protection): difference between compound 1 µM + paclitaxel 0.05 µM and paclitaxel 0.05 µM alone
Procedure: Compounds of this invention were evaluated using the neurite outgrowth assay as described in Chen et al., Scientific Reports, 7, 45366, DOI: 10.1038/srep45366 (2017).
(§1) Cell culture. For primary culture, dorsal root ganglia (“DRG”) were removed from 7-weeks-old C57BL/6 J mice and digested with 0.1% collagenase (Sigma-Aldrich, St. Louis, MO) for 1 hour, followed by 0.25% trypsin treatment for 25 minutes. The dissociated neuron cultures were plated at a density of 2.5×10^4 cells per well in a 96 well optics plates (CLS3614; Sigma-Aldrich) precoated with 1 mg/mL poly-D-lysine (A-003-M; Sigma-Aldrich) for 3 hours. Primary DRG cells were grown in DMEM-F12 (11320033; Gibco®, ThermoFisher Scientific, Waltham, MA) supplemented with 10% fetal bovine serum (FBS, 26140079; Gibco®, ThermoFisher). These cells were maintained at 37° C. in an environment containing 5% CO2.
(§2) Neurite outgrowth assay (group A). Primary DRG cells were incubated with one of the Example 2 compounds at 1 µM for 24 hours, and then treated with 0.05 µM paclitaxel for another 24 hours. After the paclitaxel treatment, the primary DRG cells were washed by PBS and then fixed with 4% paraformaldehyde (PFA, P6148; Sigma-Aldrich) for 15 minutes. The DRG cells thus fixed were permeabilized by 0.05% Triton X-100 in PBS for 20 minutes and blocked with 3% bovine serum albumin (BSA; Sigma-Aldrich, USA) at room temperature for 1 hour. Subsequently, DRG cells were stained with rabbit anti-β III tubulin (1:600; Cell Signaling, USA) and mouse anti-NeuN monoclonal antibody (1:400; Millipore, USA) overnight at 4° C. The samples were then washed by PBS and reacted with secondary antibodies (Alexa-488 and Alexa-594 1:600; Invitrogen, CA) at room temperature for 1 hour. For image acquisition and analysis of DRG neurite outgrowth, images of stained cells were automatically acquired using 10X objective by Image Xpress Micro wide field fluorescent microscope (Molecular Devices, USA). A control was obtained following the same procedure except that the DRG cells were not treated with a compound or paclitaxel. Neurite outgrowth was measured as a percentage of outgrowth as compared to the control.
The difference between A and B indicates an extent of protection provided by the compound.

Primary DRG cells [2] = assay: Neurite outgrowth assay (group B), oxaliplatin-induced neurotoxicity; assay type: cell-based, C57BL/6 J mice; settings: for Neurite outgrowth (%): DRG cells, 1 µM compound 24 h then 100 µM oxaliplatin 48 h, % of untreated control; for Neurite outgrowth (%) A-B: difference between compound 1 µM + oxaliplatin 100 µM and oxaliplatin 100 µM alone; for neuroprotection against oxaliplatin-induced neurotoxicity: 1 µM compound, 100 µM oxaliplatin
Procedure: as §1, §2
Neurite outgrowth assay (group B). Primary DRG cells were incubated with compounds 17, 47, 97, 98, 101, 104 at 1 µM for 24 hours, and then treated with 100 µM oxaliplatin for another 48 hours. The treatment was obtained following the same procedure as group A except that the DRG cells were treated with a oxaliplatin. Neurite outgrowth was measured as a percentage of outgrowth as compared to the control.

[3] = test system: paclitaxel-induced neuropathy; settings: 5 mg/kg i.p. one hour before paclitaxel 4.5 mg/kg i.p., days 0, 2, 4, 6
Procedure: Compound 47 was used in an in vivo mouse behavioral study for treating paclitaxel-induced neuropathy following a procedure described in Chen et al., Scientific Reports, 7, 45366, DOI: 10.1038/srep45366 (2017).
After housing adaptions, 7-weeks-old C57BL/6J female mice (weight range: 18-20 g) were treated as follows. Paclitaxel (4.5 mg/kg, Bristol-Myers Squibb, New York, New York), vehicle (saline), or Compound 47 (5, 10 or 20 mg/kg) was injected intraperitoneally on four alternative days (days 0, 2, 4, and 6). Two behavior tests were performed: (1) mechanical hyperalgesia was evaluated using a von Frey filament (Part #2390, IITC Inc., CA) and (2) thermal sensitivity was studied using a tail immersion assay (water temperature: 48-49° C.). See Chen et al., Mol. Cancer. Ther. 14, 2206-14 (2015). The baseline measurement of each behavior test was established prior to treatments. Five sessions were measured weekly.
The neuroprotective effects of Compound 47 in a mouse model was measured following a protocol with predetermined drug administration and behavioral tests. The basal levels of each behavioral assay were obtained prior to the treatment. […]
A von Frey filament test was performed to detect allodynia. […] Thermal sensation was assessed using a tail immersion test by checking tail withdrawal latency. […]

Row | SMILES | neuroprotection against paclitaxel-induced neurotoxicity (Primary DRG cells [1]) | activity at 1 µM (Primary DRG cells [1]) [%] | Neurite outgrowth (%) A-B (extent of protection) (Primary DRG cells [1]) [%] | Neurite outgrowth (%) (Primary DRG cells [2]) | Neurite outgrowth (%) A-B (Primary DRG cells [2]) [%] | pain threshold (von Frey) [3] | improvement of neurite outgrowth (Primary DRG cells [1]; 1 µM compound vs 0.05 µM paclitaxel treated cells) | improvement of neurite outgrowth (Primary DRG cells [2]; 1 µM compound vs 100 µM oxaliplatin treated cells) | neuroprotection against oxaliplatin-induced neurotoxicity (Primary DRG cells [2])
1 | CC(C)NCCCn1cc(CNc2nc(NC3CCN(Cc4ccccc4)CC3)cc(N3CCOCC3)n2)nn1 [Compound 17] | neuroprotection was provided | 50 | 3 | 26 | -3 | – | – | – | –
2 | O=P(O)(O)CCN1CCC(Nc2cc(N3CCOCC3)nc(NCc3cn(CCCO)nn3)n2)CC1 [Compound 47] | neuroprotection was provided | 65 | 18 | 47 | 7 | provided protection | more than 18% | more than 7% | neuroprotection was provided
3 | CCn1nnnc1CNc1nc(N2CCOCC2)cc(N2CCOCC2)n1 [Compound 97] | neuroprotection was provided | 45 | 5 | 31 | 2 | – | – | – | neuroprotection was provided
4 | CCn1nnc(CNc2nc(N3CCOCC3)cc(N3CCOCC3)n2)n1 [Compound 98] | neuroprotection was provided | 45 | 5 | 26 | -3 | – | – | – | –
5 | CCn1nnc(CNc2nc(NC3CCN(CCC(=O)O)CC3)cc(N3CCOCC3)n2)n1 [Compound 101] | neuroprotection was provided | 53 | 6 | 31 | 2 | – | – | – | neuroprotection was provided
6 | OCCCc1cc(CNc2nc(NC3CCNCC3)cc(N3CCOCC3)n2)no1 [Compound 104] | neuroprotection was provided | 45 | 5 | 34 | 5 | – | – | – | neuroprotection was provided

Source: patent US20230085362A1, “PYRIMIDINE COMPOUNDS AND USE THEREOF” (National Health Research Institutes, priority 2021, published 2023)
